Results from patent US11779597B2, “Method of treating Parkinson's and other neurodegenerative diseases” (Vector Vitale IP LLC, priority 2019, dated 2023).

Tests used:
[1] = tested on: rat peripheral blood neutrophils; assay: Metabolic profile of nonsensitized rat peripheral blood neutrophils in vitro; type: cell-based
Description: Materials and methods: Rat microglial cells were isolated by mechanical (cell sieves) disintegration of the brain tissue (FIG. 30A, FIG. 30B and FIG. 30C) followed by fractionation of the tissue homogenate in Percoll density gradient (Microglia: Methods and Protocols, Edited by Bertrand Josef and Jose Luis Venero, Springer protocol. Humana Press, 2013, 350 p.) (FIG. 31). Before the collection of the brain tissue, decapitation was performed to avoid hemorrhage to the brain during sampling (FIG. 32). Decapitation was performed immediately after anesthesia to minimize the death of brain tissue, including microglial cells. All manipulations for the isolation of microglial cells were carried out using coolants. Circulating neutrophils were isolated from venous blood taken into a tube containing EDTA in a two-step Percoll gradient (Alsharif K F et al. Vascul Pharmacol. 2015 August; 71:201-7. doi: 10.1016/j.vph.2015.02.006)(FIG. 33A and FIG. 33B). Circulating monocytes were isolated from venous blood collected into a tube containing heparin in a two-step Hypaque gradient (Macrophages and dendritic cells: Methods and Protocols, Edited by Neil E. Reiner, NY, Humana Press, 2009: 368 P). The metabolic profile of phagocytes was characterized based on the pathway of arginine metabolism (levels of arginase activity and NO synthesis measured using photocolorimetric methods), the level of formation of intracellular reactive oxygen species (ROS) by esterases and the indices of phagocytic activity determined by flow cytofluorimetry, as well as according to the activation levels of NADH and NADPH oxidases determined in NBT test. Duration of treatment of phagocytes of all the above mentioned populations varied depending on the methodological characteristics of metabolic response. A 90 minute exposure to the drugs according to Kim et al., 1977 (cited above) was used to analyze their effects on oxidative metabolism and phagocytic activity. An 18 hour exposure according to Lastra et al., 2001 (cited above) was used to analyze the drug effects on arginine metabolic pathway. To analyze the effects of the drugs under study on the induced (stimulated) metabolic activity of phagocytes, the cells were treated with lipopolysaccharide (LPS) from E. coli (Sigma, USA) according to Haddad et al., 2009 (cited above).

[2] = tested on: LPS rat models of Parkinson's disease; assay: Elevated plus maze; type: in vivo
Source text: Method. The elevated plus maze is a widely used behavioral assay for rodents that makes it possible to assess sedative or anxiogenic effects of agents and to define mechanisms underlying anxiety-related behavior, as well as to evaluate the motor activity of rats and levels of their exploratory activity that may correlate with the data collected in the open field test. Campos A C, et al., Braz J Psychiatry. 2013; 35 Suppl 2:S101-11. doi: 10.1590/1516-4446-2013-1139; Braun A A, et al., Neurobiol Learn Mem. 2012; 97(4):402-8. doi: 10.1016/j.nlm.2012.03.004). Behavior was assessed according to the following main parameters: the total distance travelled, the number of entries into each arm, the time spent in each arm, the total number of entries and percent of entries. […] Throughout the experiment, animals had free access to food and water. Before starting measurements, animals were given time to adapt to new an environment to reduce stress.
The entire apparatus was elevated 50 cm above the floor. The central part of the junction was a 10 cm square center region where an animal was started facing an open arm. The apparatus was illuminated by two LED bulbs, 60 watts each, hanging at a height of 2 m. An IP camera was used to record the location of rats and scoring was completed later using the MATLAB-based software. The statistical analysis was performed using GraphPad Prism. Significance was set at <0.005. The data collected from the open field were analyzed using One-way ANOVA (Tukey test or Dunnett test) and Unpaired t-test or Mann-Whitney.
Data analysis and interpretation. The test is based on the natural aversion of rats for open areas and their preference for closed areas of the apparatus. The levels of anxiety in animals are assessed as the total time spent in the open and closed arms. Animals that spend more time in the open arms have lower levels of anxiety compared to animals that prefer closed arms. In addition, like in an open field test, a novel environment in which an animal finds itself evokes conflict between fear and a desire to explore this environment. Therefore, the data collected from these two tests may correlate in the distance travelled and the time spent in the outer and inner perimeter. It is considered normal if during a 5-minute test, animals spend most of their time in the closed arms but also make a few entries to the open arms to explore. Accordingly, an increase in open arm entries is interpreted as a decreased anxiety in the animal. FIG. 51A and FIG. 51B show an example of analysis of a rat trajectory in the experimental arena.
On the 1st day of the experiment, rats were either operated to model hemi-parkinsonism or sham operated. From the 9th to the 18th day of the experiment, the animals were injected either deuterium-depleted water or the test substance, according to their allocation into groups, for 10 days. On the 8th day of the experiment (before initiation of treatment—apomorphine test I) and on the 21st day of the experiment (after the end of administering the test substance —apomorphine test II) the animals underwent an apomorphine test to analyze the development of hemi-parkinsonism which correlates with the number of destroyed dopaminergic neurons. In addition, a follow-up analysis of fecal water content was carried out, i.e., before the start of treatment on the 8th day after the operation, as well as on the 21st (after the end of treatment) and the 28th day (before autopsy). On the 24th day of the experiment, behavioral tests were carried out in all groups. All animals were weighed before autopsy.

Substance: ^64Zn-enriched zinc aspartate [^64Zne-asp]
- arginase activity of resting and bacterial LPS-treated neutrophils [1]: remained practically unchanged
- esterase-dependent oxidative metabolism in neutrophils treated with bacterial LPS [1]: sharp decrease
- intracellular ROS production by nonsensitized neutrophils [1]: sharp decrease
- phagocytic activity of neutrophils [1]: No statistically significant effect
- synthesis of reactive nitrogen species by neutrophils after treatment with LPS [1]: moderately negative effect
- synthesis of reactive nitrogen species by resting neutrophils [1]: no significant effect
- ROS production dependent on NADH and NADPH oxidases (NBT test) in neutrophils ([1]; irrespective of treatment with bacterial LPS): strong negative effect
- Number of entries into closed arms ([2]; LPS + ^64Zn-asp, Gr. V): 6.1 ± 8.279
- Number of entries into open arms ([2]; LPS + ^64Zn-asp, Gr. V): 6.1 ± 8.279
- Time spent in closed arms ([2]; LPS + ^64Zn-asp, Gr. V): 243.3 ± 54.2 s
- Time spent in open arms ([2]; LPS + ^64Zn-asp, Gr. V): 17.55 ± 24.48 s
- Total distance travelled, cm ([2]; LPS + ^64Zn-asp, Gr. V): 396.8 ± 107.7 cm
- Total number of entries ([2]; LPS + ^64Zn-asp, Gr. V): 13 ± 16.66
- behavioral parameters in the elevated plus maze (in words) ([2]; group V (LPS+^64Zn-asp) versus group IV (LPS)): had not produced any effects
- increase of number of entries ([2]; group V versus group IV (LPS)): 1.3 times
- increase of total distance travelled ([2]; group V versus group IV (LPS)): 1.2 times
